The source of these data is patent US9320760B2, “Compositions and methods of use of compounds to increase cancer patient survival time” (BioNumerik Pharmaceuticals, Inc., priority 2008, dated 2016).

For assay [1], the target named is T1, Thioredoxin Reductase + Thioredoxin (Bos taurus, UniProt O97680).
T1 sequence (O97680 1-105): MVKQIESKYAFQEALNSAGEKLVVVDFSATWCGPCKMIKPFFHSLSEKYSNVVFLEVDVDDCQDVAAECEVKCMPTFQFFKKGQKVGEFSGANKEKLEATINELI
The assay is described as follows: NADPH oxidation at 340 nm, coupled thioredoxin (TX)/thioredoxin reductase (TXR)/NADPH system. In kind it is biochemical, bovine. The method, then: Biochemistry 21:6628-6633 (1982).
Data was then collected and plotted in Microsoft Excel. Error calculations, and graphical representations were performed in Microsoft Excel and Kaleidograph (ver. 3.5). Nonlinear data was graphically rendered using Kaleidograph. ANOVA and other statistical analyses were performed using SAS (ver. 8.2). Unless otherwise noted, significance level was set at 0.05, and error bars represent actual experimental standard deviation.
It should be noted that for the purposes of FIG. 17 only, thioredoxin is labeled TXR and thioredoxin reductase is labeled TRR.
Table 4, below, illustrates that various Formula (I) compounds (i.e., disulfide-containing compounds) of the present invention can serve as alternate substrate inhibitors for the coupled thioredoxin (TX)/thioredoxin reductase (TXR)/NADPH system as measured by the oxidation of NADPH. In Table 4, the Formula (I) compounds were utilized at a concentration of 0.5 mM.

Another assay has as its target T2, GR + GSH (Homo sapiens, UniProt P00390).
T2 sequence (P00390 44-522): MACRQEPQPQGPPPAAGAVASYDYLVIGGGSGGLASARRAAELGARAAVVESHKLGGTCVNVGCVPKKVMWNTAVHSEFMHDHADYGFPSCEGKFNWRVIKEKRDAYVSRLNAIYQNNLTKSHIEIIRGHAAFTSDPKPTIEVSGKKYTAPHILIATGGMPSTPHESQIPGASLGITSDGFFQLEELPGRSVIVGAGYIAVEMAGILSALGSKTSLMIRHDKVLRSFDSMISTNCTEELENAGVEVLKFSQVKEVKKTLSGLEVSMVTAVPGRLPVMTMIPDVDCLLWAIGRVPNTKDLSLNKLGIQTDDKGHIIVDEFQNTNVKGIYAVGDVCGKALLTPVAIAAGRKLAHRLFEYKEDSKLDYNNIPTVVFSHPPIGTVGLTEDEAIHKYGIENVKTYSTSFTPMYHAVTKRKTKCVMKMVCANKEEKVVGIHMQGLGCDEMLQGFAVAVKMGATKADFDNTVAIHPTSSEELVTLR
As to the kind of experiment: NADPH oxidation, GR + GSH. It is filed as biochemical. The conditions noted are these: Disulfide 0.5 mM; n = 6. How it is done: (§1) The Formula (I) compound was utilized at a concentration of 0.5 mM.

Assay [2] addresses T3, GR + GRX + GSH (coupled glutaredoxin/glutathione/glutathione reductase system) (Homo sapiens, UniProt P35754).
T3 sequence (P35754 1-106): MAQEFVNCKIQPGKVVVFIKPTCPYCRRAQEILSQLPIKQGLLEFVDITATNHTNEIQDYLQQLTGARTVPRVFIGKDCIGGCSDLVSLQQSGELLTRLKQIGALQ
The assay is described as follows: NADPH oxidation, coupled GRX/GSH/GR system. It is filed as biochemical. How it is done:
as §1

The subject of a further assay is whole cells. The assay is described as follows: whole cell mediated disulfide reduction (α-lipoic acid, hydroxyethyldisulfide). It is filed as cell-based. The conditions noted are these: treatments with paclitaxel, cisplatin and Tavocept.
Assay [3] in a line: interference with paclitaxel and platinum regimens in animal models. It is filed as in vivo. From the text: An important element of Tavocept's™ effectiveness as a compound in the treatment of cancer is its selectivity for normal cells versus cancer cells and its inability to interfere with the anti-cancer activity of chemotherapeutic agents.
Another assay concerns breast cancer cell lines. As to the kind of experiment: cytotoxicity study in combination with cisplatin, breast cancer cell lines. In kind it is cell-based, human. The conditions noted are these: Tavocept in combination with cisplatin vs cisplatin only controls.

`O=S(=O)([O-])CCSSCCS(=O)(=O)[O-].[Na+].[Na+]` [Tavocept™, disodium 2,2′-dithio-bis-ethane sulfonate]: the “NADPH Oxidation, Thioredoxin Reductase + Thioredoxin” value in assay [1] (Disulfide 0.5 mM, minimum of triplicate assays) came to 13.1 ± 0.2 nmol/min/mL. Besides, the “NADPH oxidation by TXR in the presence of TX” value in assay [1] (FIG. 17, increasing Tavocept concentration) is on record as “concentration-dependent increase”. Besides, the “oxidation of reduced thioredoxin to oxidized thioredoxin” value in assay [1] (result in words) is recorded as “drives the oxidation”. Also, the “NADPH Oxidation, GR + GSH” value on GR + GSH was determined as 2.9 ± 1.6 nmol/min/mL. Also, the “NADPH Oxidation, GR + GRX + GSH” value in assay [2] (Disulfide 0.5 mM, n = 6) turned out to be 15.3 ± 1.0 nmol/min/mL. Further, the “substrate-like activity with glutaredoxin / alternative substrate inhibitor for the coupled GRX/GSH/GR system” value in assay [2] (in the presence of reduced glutathione and glutathione reductase, result in words) is reported as “exhibits substrate-like activity”. The “whole cell mediated disulfide reduction” value with whole cells is listed as “declined”. Also, the “interference with paclitaxel and platinum regimens” value in assay [3] is given as “did not interfere”. The cell death result in the assay on breast cancer cell lines is “increase in cell death”.
